Test results as given in patent US11400019B2, “Sustained release drug delivery systems with reduced impurities and related methods” (DURECT CORPORATION, priority 2020, dated 2022).
Several values for one entry are separate records, joined by “and”; a condition that tells them apart may be missing. Identical values can stand only once.

Columns and labels:
Type in all cases: physicochemical
[1] = 2,6-dimethylaniline standard in clear, amber and red glassware, HPLC with electrochemical detection
Experimental: A series of experiments was conducted examining the effects of amber and red colored glassware on the stability of the 2,6-dimethylaniline reference standard, using electrochemical detection, at a concentration of 3 ng/mL in an aqueous buffer/methanol solution.
In Experiment 1, the 2,6-dimethylaniline was prepared at a concentration of 3 ng/mL in a clear, colorless glass 100 mL volumetric flask. Aliquots were transferred into clear HPLC glass vials, and assayed against external standards. The 3 injections of the 2,6-dimethylaniline were consistently near 3 ng/mL.
In Experiment 2, the 2,6-dimethylaniline solution at 3 ng/mL prepared in a clear, colorless glass 100 mL volumetric flask was transferred to amber HPLC vials.
An aliquot was transferred into a clear HPLC glass vial, and assayed against external standards. The sample injection had the same 2,6-dimethylaniline concentration value as that in Experiment 1.
In Experiment 4, the 2,6-dimethylaniline solution at 3 ng/mL prepared in the red colored glass 100 mL volumetric flask coated with RAY-SORB® was transferred to an amber HPLC vial.

[2] = Peroxide content of SAIB and benzyl alcohol versus bupivacaine N-oxide
Experimental: The peroxide content for several lots of sucrose acetate isobutyrate were determined by potentiometric titration involving iodometric titration. The bupivacaine N-oxide levels in samples of Formulation A were determined using HPLC with UV detection.
The bupivacaine N-oxide data in Table 10.1 are for the longest available stability time points for each set of samples.
All of the benzyl alcohol compositions had peroxide values of less than […]. The peroxide value can be converted to peroxide content, expressed as hydrogen peroxide, by multiplying PV by 17. […] The maximum contribution to peroxide content from benzyl alcohol is 85 ppm divided by 3, or 28 ppm.

[3] = In vitro cumulative release of bupivacaine, USP Apparatus II dissolution, f1/f2 comparison; conditions: pre-heated in oven at 225° C. for 4 hours
Experimental: The in vitro cumulative release of bupivacaine from formulations was determined as follows.
The bupivacaine formulations, other than the heat-stressed formulation, were prepared by dissolving appropriate amounts of bupivacaine in appropriate amounts of benzyl alcohol (BA), adding an appropriate amount of sucrose acetate isobutyrate (SAIB), and stirring not less than 45 minutes at about 35° C. For the heat-stressed SAIB formulation, the same process was followed except the SAIB was pre-heated in an oven at 225° C. for 4 hours before use. A portion of the pre-heated SAIB was tested and found to have 98% SAIB remaining.
Dissolution was measured using a USP Apparatus II. Approximately 0.5 mL of each formulation was loaded via cannula and syringed into 900 mL±5 mL of 37±0.5° C. dissolution media (phosphate buffer at pH 7.4±0.05 with 0.03% sodium lauryl sulfate). The USP Apparatus II was set at 50 RPM, and samples were collected at 1, 4, 8, 12, 18, 24, 36, 48, and 72 hours. The number of replicates (N) per sample per time point varied as described above. The collected samples were assayed for bupivacaine content by HPLC.
The dissolution profile comparisons were conducted using a difference factor (f1) and a similarity factor (f2) approach (FDA Guidance for Industry “Dissolution Testing of Immediate Release Solid Oral Dosage Forms” August 1997). […]

Metal content by ICP-MS = assay: Metal content by ICP-MS
Experimental: Sucrose acetate isobutyrate was tested for metal content as follows. The sample was prepared with a 0.1 g weighed portion mixed with 2 mL nitric acid and 0.5 mL hydrochloric acid for 1 hour on a block digester set at 110° C. After cooling, 0.5 mL of 30% hydrogen peroxide was added, and the digestion resumed for 30 minutes (the material appeared dissolved). After cooling, internal standard solution was added and dilution with purified water to 20 g produced a solution for ICP-MS analysis.
Formulation A was compounded using steel compounding tanks. Silicone tubing was used to transfer Formulation A. Formulation A was filled into glass vials, which were then sealed with fluorocarbon-coated stoppers.
Formulation A was tested for metal content as follows. The sample was prepared with a 0.2 g weighed portion mixed with 2 mL nitric acid, 1 mL hydrochloric acid, and 1 mL hydrofluoric acid, then digested in a closed-vessel microwave system (the material appeared dissolved). After cooling, internal standard solution was added and dilution with purified water to 50 g produced a solution for ICP-MS analysis.

Cc1cccc(C)c1N [2,6-dimethylaniline]
Observed Concentration of Standard ([1]; Experiment 1: clear flask, clear HPLC vial, nominal 3 ng/mL): ~3 ng/mL | Observed Concentration of Standard ([1]; Experiment 1: clear flask, clear HPLC vial, nominal 3 ng/mL, listed as 2,6-Dimethlylaniline Standard): 3.0 ng/mL and 3.1 ng/mL | Observed Concentration of Standard ([1]; Experiment 2: clear flask, amber HPLC vial, listed as 2,6-Dimethlylaniline Standard): 24.5 ng/mL and 28.4 ng/mL and 34.6 ng/mL and 38.1 ng/mL | Observed Concentration of Standard ([1]; Experiment 3: red RAY-SORB flask, clear HPLC vial): 3.0 ng/mL | 2,6-dimethylaniline content, times higher than Experiments 1 and 3 ([1]; Experiment 4, amber HPLC vial): approximately 5 times | Observed Concentration of Standard ([1]; Experiment 4: red flask, amber HPLC vial): 14.9 ng/mL

OCc1ccccc1 [benzyl alcohol]
effective peroxide contribution to formation of bupivacaine N-oxide ([2]; 8.5 ppm divided by 3): < 2.8 ppm | peroxide content, expressed as hydrogen peroxide ([2]; PV multiplied by 17): < 8.5 ppm | peroxide value (PV) ([2]; all lots used for Formulation A samples): less than 0.5

sucrose acetate isobutyrate [SAIB]
SAIB remaining [3]: 98% | Gold content (Metal content by ICP-MS; detection limit 0.02): 0.4 ppm | Tin content (Metal content by ICP-MS; detection limit 0.04): 0.06 ppm | Iron content (Metal content by ICP-MS; detection limit 1): 2 ppm | peroxide in SAIB corresponding to 0.8% bupivacaine N-oxide ([2]; linear regression, FIG. 2): 232.5 ppm | peroxide in SAIB corresponding to 1.0% bupivacaine N-oxide ([2]; linear regression, FIG. 2): 296.4 ppm
